Results published in ChEMBL document CHEMBL4330150, “Synthesis and biological evaluation of pyrazole linked benzothiazole-β-naphthol derivatives as topoisomerase I inhibitors with DNA binding ability” (Bioorg Med Chem, 2019).
Activity calls are given as the source filed them. The calls are words filed in the database; no cut-off is given here.

Tests used:
HeLa [1] = assay: Antiproliferative activity against human HeLa cells after 48 hrs by MTT assay; format: functional, cell-based
A549 = assay: Antiproliferative activity against human A549 cells after 48 hrs by MTT assay; format: functional, cell-based; conditions: A549, 48 h
MCF7 = assay: Antiproliferative activity against human MCF7 cells after 48 hrs by MTT assay; format: functional, cell-based; conditions: MCF7, 48 h
Calf thymus DNA [2] = assay: Binding affinity to calf thymus DNA assessed as DNA intercalation by measuring increase in viscosity at 5 uM by Ostwald viscometric method; format: nucleic-acid assay; conditions: Bos taurus
Calf thymus DNA [3] = assay: Binding affinity to calf thymus DNA assessed as DNA intercalation by measuring increase in viscosity at 15 uM by Ostwald viscometric method; format: nucleic-acid assay; conditions: Bos taurus
Calf thymus DNA [4] = assay: Binding affinity to calf thymus DNA assessed as hypochromicity shift in positive band at DNA to compound ratio of 1:1 by CD spectral analysis; format: nucleic-acid assay; conditions: Bos taurus
HEK293 = assay: Antiproliferative activity against HEK293 cells after 48 hrs by MTT assay; format: cell-based; conditions: Homo sapiens, HEK293, 48 h
HeLa [5] = assay: Cell cycle arrest in human HeLa cells assessed as accumulation at S phase at 5 uM after 48 hrs by propidium iodide staining based FACS analysis (reference value: 5.58%); format: functional
HeLa [6] = assay: Cell cycle arrest in human HeLa cells assessed as accumulation at sub-G1 phase at 2.5 uM after 48 hrs by propidium iodide staining based FACS analysis (reference value: 1.69%); format: functional
[7] = target: T1, DNA topoisomerase 1 (Homo sapiens) (UniProt P11387); assay: Inhibition of topoisomerase-1 (unknown origin) at 100 uM using pBR322 DNA as substrate after 30 mins by agarose gel electrophoresis method
T1 sequence (whole entry): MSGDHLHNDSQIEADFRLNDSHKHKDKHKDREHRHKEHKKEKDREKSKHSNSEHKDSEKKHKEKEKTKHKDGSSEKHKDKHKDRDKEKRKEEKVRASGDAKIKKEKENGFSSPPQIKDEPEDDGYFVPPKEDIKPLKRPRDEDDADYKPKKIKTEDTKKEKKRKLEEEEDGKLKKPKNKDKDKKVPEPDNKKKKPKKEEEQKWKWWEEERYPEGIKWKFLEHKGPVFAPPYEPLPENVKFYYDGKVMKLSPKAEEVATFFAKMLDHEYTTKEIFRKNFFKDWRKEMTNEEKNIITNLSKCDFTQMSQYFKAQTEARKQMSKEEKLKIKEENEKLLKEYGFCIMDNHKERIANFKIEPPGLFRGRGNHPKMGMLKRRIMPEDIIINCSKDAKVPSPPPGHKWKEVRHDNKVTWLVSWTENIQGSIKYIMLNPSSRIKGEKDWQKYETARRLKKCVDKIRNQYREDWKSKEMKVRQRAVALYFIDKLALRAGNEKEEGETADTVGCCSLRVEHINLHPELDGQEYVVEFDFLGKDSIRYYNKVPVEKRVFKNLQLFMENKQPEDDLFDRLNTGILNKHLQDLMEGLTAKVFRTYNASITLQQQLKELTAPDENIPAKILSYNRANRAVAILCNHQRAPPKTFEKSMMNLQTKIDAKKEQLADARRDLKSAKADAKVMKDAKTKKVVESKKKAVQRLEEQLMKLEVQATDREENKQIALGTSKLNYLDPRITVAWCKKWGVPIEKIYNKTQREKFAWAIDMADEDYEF

Calf thymus DNA [8] = assay: Binding affinity to calf thymus DNA assessed as hypochromicity shift in negative band at DNA to compound ratio of 1:1 to 1:2 by CD spectral analysis; format: nucleic-acid assay; conditions: Bos taurus
Calf thymus DNA [9] = assay: Binding affinity to calf thymus DNA assessed as hypochromicity shift at 10 uM by fluorescence spectral analysis; format: nucleic-acid assay; conditions: Bos taurus
HeLa [10] = assay: Cell cycle arrest in human HeLa cells assessed as accumulation at S phase at 2.5 uM after 48 hrs by propidium iodide staining based FACS analysis (reference value: 5.58%); format: functional
HeLa [11] = assay: Cell cycle arrest in human HeLa cells assessed as accumulation at G1 phase at 5 uM after 48 hrs by propidium iodide staining based FACS analysis (reference value: 73.5%); format: functional
HeLa [12] = assay: Cell cycle arrest in human HeLa cells assessed as accumulation at G2/M phase at 5 uM after 48 hrs by propidium iodide staining based FACS analysis (reference value: 13.9%); format: functional
HeLa [13] = assay: Cell cycle arrest in human HeLa cells assessed as accumulation at G2/M phase at 2.5 uM after 48 hrs by propidium iodide staining based FACS analysis (reference value: 13.9%); format: functional
HeLa [14] = assay: Cell cycle arrest in human HeLa cells assessed as accumulation at G1 phase at 2.5 uM after 48 hrs by propidium iodide staining based FACS analysis (reference value: 73.5%); format: functional
Calf thymus DNA [15] = assay: Binding affinity to calf thymus DNA assessed as hypochromicity at 10 uM by UV-Visible spectrophotometric method; format: nucleic-acid assay; conditions: Bos taurus
HeLa [16] = assay: Cell cycle arrest in human HeLa cells assessed as accumulation at sub-G1 phase at 5 uM after 48 hrs by propidium iodide staining based FACS analysis (reference value: 1.69%); format: functional
Calf thymus DNA [17] = assay: Binding affinity to calf thymus DNA assessed as hypochromicity shift in positive band at DNA to compound ratio of 1:2 by CD spectral analysis; format: nucleic-acid assay; conditions: Bos taurus

SMILES	IC50 (HeLa [1]) [µM]	IC50 (A549) [µM]	IC50 (MCF7) [µM]	also measured
Oc1ccc2ccccc2c1C(Nc1nc2ccc(Cl)cc2s1)c1cn(-c2ccccc2)nc1-c1cccc(Cl)c1 (stereo not given)	18.3	33.3	17.5	
O=[N+]([O-])c1cccc(-c2nn(-c3ccccc3)cc2C(Nc2nc3ccc(Cl)cc3s2)c2c(O)ccc3ccccc23)c1 (stereo not given)	15.5	42.5	19.7	
CC[n+]1c(-c2ccccc2)c2cc(N)ccc2c2ccc(N)cc21				Activity (Calf thymus DNA [2]): Active
Cc1ccc(-c2nn(-c3ccccc3)cc2C(Nc2nc3cc(C)c(C)cc3s2)c2c(O)ccc3ccccc23)cc1 (stereo not given)	17.8	31.2	22.4	
CN1CCN(c2ccc3[nH]c(-c4ccc5[nH]c(-c6ccc(O)cc6)nc5c4)nc3c2)CC1				Activity (Calf thymus DNA [2]): inactive
COc1ccc2nc(NC(c3cn(-c4ccccc4)nc3-c3ccc(Cl)cc3)c3c(O)ccc4ccccc34)sc2c1 (stereo not given)	5.2	34.5	23.7	Activity (Calf thymus DNA [3]): inactive; Activity (Calf thymus DNA [4]): Active; IC50 (HEK293): 56 µM; Activity (HeLa [5]): 9.03%; Activity (HeLa [6]): 2.33%; inhibition [7]: Active; Activity (Calf thymus DNA [8]): Active; Activity (Calf thymus DNA [9]): 507 nm; Activity (HeLa [10]): 8.89%; Activity (HeLa [11]): 66.5%; Activity (HeLa [12]): 20%; Activity (HeLa [13]): 19.9%; Activity (HeLa [14]): 66.2%; Activity (Calf thymus DNA [15]): Active; Activity (HeLa [16]): 2.03%; Activity (Calf thymus DNA [17]): Active
Oc1ccc2ccccc2c1C(Nc1nc2ccc(Cl)cc2s1)c1cn(-c2ccccc2)nc1-c1ccc(F)cc1 (stereo not given)	30.1	32.1	21.6	
CN1CCN(c2ccc3nc(-c4ccc5nc(-c6ccc(O)cc6)[nH]c5c4)[nH]c3c2)CC1	23.5		48.1	
Cc1cccc(-c2nn(-c3ccccc3)cc2C(Nc2nc3ccccc3s2)c2c(O)ccc3ccccc23)c1 (stereo not given)	7.02	18.5	17.3	
COc1cccc(-c2nn(-c3ccccc3)cc2C(Nc2nc3ccc(Cl)cc3s2)c2c(O)ccc3ccccc23)c1 (stereo not given)	30	49.8	36	
O=[N+]([O-])c1ccc(-c2nn(-c3ccccc3)cc2C(Nc2nc3ccccc3s2)c2c(O)ccc3ccccc23)cc1 (stereo not given)	6.81	41.2	14.7	
COc1ccc2nc(NC(c3cn(-c4ccccc4)nc3-c3ccc([N+](=O)[O-])cc3)c3c(O)ccc4ccccc34)sc2c1 (stereo not given)	5.54	22.5	13.3	Activity (Calf thymus DNA [3]): inactive; Activity (Calf thymus DNA [4]): Active; IC50 (HEK293): 46.5 µM; inhibition [7]: Active; Activity (Calf thymus DNA [8]): Active; Activity (Calf thymus DNA [9]): 337 nm; Activity (Calf thymus DNA [15]): Active; Activity (Calf thymus DNA [17]): Active
COc1ccc(-c2nn(-c3ccccc3)cc2C(Nc2nc3ccccc3s2)c2c(O)ccc3ccccc23)cc1 (stereo not given)	9.34	26.2	17.5	
Cc1ccc2nc(NC(c3cn(-c4ccccc4)nc3-c3cccc([N+](=O)[O-])c3)c3c(O)ccc4ccccc34)sc2c1 (stereo not given)	7.36	57.4	38.4	
Oc1ccc2ccccc2c1C(Nc1nc2ccc(Cl)cc2s1)c1cn(-c2ccccc2)nc1-c1ccc(Cl)cc1 (stereo not given)	36.8	54.1	27.5	
COc1cccc(-c2nn(-c3ccccc3)cc2C(Nc2nc3ccccc3s2)c2c(O)ccc3ccccc23)c1 (stereo not given)	14.9	24.8	16.9	
Oc1ccc2ccccc2c1C(Nc1nc2ccccc2s1)c1cn(-c2ccccc2)nc1-c1ccc(I)cc1 (stereo not given)	6.59	23.1	18.9	
